Laboratory results from ChEMBL document CHEMBL6182942, “Discovery of a Selective, Novel TGF-βR1 Inhibitor GFH018 for the Treatment of Solid Tumors” (J Med Chem, 2025).
In brackets after ≈: the same amount, converted by molar mass. Activity calls are given as the source filed them. The rule behind the calls is not given here.

Tests used:
4T1-Luc [1] = test: Antimetastatic activity against mouse 4T1-Luc cells implanted in BALB/c mouse assessed as reduction in metastatic rate in spleen at 100 mg/kg, po administered daily for 32 days and measured on day 30 to 35 by IVIS fluorescence analysis; type: functional, organism-based; settings: time 35.0 day
[2] = Intrinsic clearance in cynomolgus monkey hepatocytes at 1 uM measured after 90 mins by LC-MS/MS analysis; type: ADME, cell-based, Macaca fascicularis, Hepatocyte; settings: read-out: CLH
TGF-beta receptor type-1 = target: T1, TGF-beta receptor type-1 (Homo sapiens, UniProt P36897); test: Inhibition of human TGFbetaR1 expressed in HEK293 cells co-expressing SBE assessed as reduction in TGFbeta/activin A-induced SMAD phosphorylation preincubated for 4 to 5 hrs followed by TGFbeta/activin A stimulation and measured after 18 hrs by luciferase reporter gene assay; type: cell-based
T1 sequence (P36897 whole entry): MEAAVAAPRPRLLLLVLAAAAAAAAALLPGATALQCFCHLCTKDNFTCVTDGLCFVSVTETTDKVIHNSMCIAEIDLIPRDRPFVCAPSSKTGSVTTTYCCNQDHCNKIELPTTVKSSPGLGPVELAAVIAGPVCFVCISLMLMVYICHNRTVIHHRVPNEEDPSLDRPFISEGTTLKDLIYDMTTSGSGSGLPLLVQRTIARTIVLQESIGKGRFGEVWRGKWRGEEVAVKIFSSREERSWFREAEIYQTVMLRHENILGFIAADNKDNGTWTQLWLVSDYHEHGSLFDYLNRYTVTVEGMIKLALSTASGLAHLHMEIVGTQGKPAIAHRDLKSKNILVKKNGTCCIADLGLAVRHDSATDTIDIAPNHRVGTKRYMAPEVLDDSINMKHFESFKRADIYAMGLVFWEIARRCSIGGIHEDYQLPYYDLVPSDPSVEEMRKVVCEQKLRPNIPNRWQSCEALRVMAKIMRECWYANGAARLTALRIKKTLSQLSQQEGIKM

CD14-positive cell [3] = test: Immunostimulatory activity in human PBMC derived M-CSF stimulated CD14-positive cells assessed as increase in IL-6 level at 0.1 to 10 uM supplemented with fresh medium containing compound on day 1, 3 and 5 followed by M-CSF/IL-4/IL-13 stimulation for 2 days with subsequent LPS induction and measured after 16 hrs; type: functional, cell-based; settings: dose 0.1-10 µM, time 7.0 day
H22 [4] = test: Antitumor activity against mouse H22 cells implanted in BALB/c mouse assessed as tumor growth inhibition at 50 mg/kg, po administered twice daily for 11 days and measured 3 times per week during compound dosing relative to control; type: functional; settings: H22, 264 h, time 11 day, read-out: TGI
[5] = Intrinsic clearance in human hepatocytes at 1 uM measured after 90 mins by LC-MS/MS analysis; type: ADME, cell-based, Hepatocyte; settings: read-out: CLH
[6] = Half life in CD-1 mouse at 75 mg/kg, po via gavage by LC-MS/MS analysis; type: ADME, organism-based; settings: in vivo
4T1-Luc [7] = test: Antimetastatic activity against mouse 4T1-Luc cells implanted in BALB/c mouse assessed as reduction in metastatic rate in lung at 100 mg/kg, po administered daily for 32 days and measured on day 30 to 35 by IVIS fluorescence analysis; type: functional, organism-based; settings: time 35.0 day
CT26 = test: Synergistic antitumor activity against mouse CT26 cells implanted in BALB/c mouse assessed as tumor growth inhibition at 50 mg/kg, po administered twice daily in presence of antimouse-PD-L1 antibody; type: functional; settings: read-out: TGI
[8] = Oral bioavailability in Beagle dog at 5 mg/kg via gavage by LC-MS/MS analysis; type: ADME, organism-based, Canis lupus familiaris; settings: in vivo
4T1-Luc [9] = test: Antimetastatic activity against mouse 4T1-Luc cells implanted in BALB/c mouse assessed as reduction in metastatic rate in forelimb at 100 mg/kg, po administered daily for 32 days and measured on day 30 to 35 by IVIS fluorescence analysis; type: functional, organism-based; settings: time 35.0 day
[10] = Kinetic solubility of the compound in pH 7.4 aqueous buffer; type: physicochemical; settings: read-out: Kinetic_solubility
[11] = AUC (0 to last) in Beagle dog at 1 mg/kg, iv by LC-MS/MS analysis; type: ADME, organism-based, Canis lupus familiaris; settings: in vivo
Cytochrome P450 2D6 = Cytochrome P450 2D6 (Homo sapiens, UniProt P10635); test: Inhibition of CYP2D6 in human liver microsomes using dextromethorphan as substrate preincubated for 10 mins followed by NADPH regeneration system addition and measured after 20 mins by LC-MS/MS analysis; type: ADME, Microsome
[12] = Volume of distribution at steady state in Sprague-Dawley rat at 1 mg/kg, iv by LC-MS/MS analysis; type: ADME, organism-based; settings: in vivo, read-out: Vdss
4T1-Luc [13] = test: Antimetastatic activity against mouse 4T1-Luc cells implanted in BALB/c mouse assessed as reduction in metastatic rate in kidney at 100 mg/kg, po administered daily for 32 days and measured on day 30 to 35 by IVIS fluorescence analysis; type: functional, organism-based; settings: time 35.0 day
[14] = Clearance in Sprague-Dawley rat at 1 mg/kg, iv by LC-MS/MS analysis; type: ADME, organism-based; settings: in vivo
[15] = Intrinsic clearance in rat hepatocytes at 1 uM measured after 90 mins by LC-MS/MS analysis; type: ADME, cell-based, Hepatocyte; settings: read-out: CLH
CD14-positive cell [16] = test: Immunostimulatory activity in human PBMC derived M-CSF stimulated CD14-positive cells assessed as reduction in IL-10 level at 0.1 to 10 uM supplemented with fresh medium containing compound on day 1, 3 and 5 followed by M-CSF/IL-4/IL-13 stimulation for 2 days with subsequent LPS induction and measured after 16 hrs; type: functional, cell-based; settings: dose 0.1-10 µM, time 7.0 day
[17] = Protein binding in mouse plasma at 0.2 to 10 uM measured after 4 hrs by equilibrium dialysis based LC-MS/MS analysis; type: ADME, cell-free; settings: dose 0.2-10 µM, read-out: PPB (converted)
[18] = Drug metabolism in dog liver microsomes; type: ADME, Canis lupus familiaris, Microsome
CD14-positive cell [19] = test: Immunostimulatory activity in human PBMC derived M-CSF stimulated CD14-positive cells assessed as effect on M2 macrophage polarization at 0.01 to 10 uM supplemented with fresh medium containing compound on day 1, 3 and 5 followed by M-CSF/IL-4/IL-13 stimulation; type: functional, cell-based; settings: dose 0.01-10 µM, time 5.0 day
4T1-Luc [20] = test: Antimetastatic activity against mouse 4T1-Luc cells implanted in BALB/c mouse assessed as reduction in metastatic rate in liver at 100 mg/kg, po administered daily for 32 days and measured on day 30 to 35 by IVIS fluorescence analysis; type: functional, organism-based; settings: time 35.0 day
[21] = target: Receptor-interacting serine/threonine-protein kinase 2 (Homo sapiens) (UniProt O43353); test: Inhibition of RIPK2 (unknown origin) assessed as residual activity at 1 uM relative to control
[22] = Metabolic stability in human liver microsomes assessed as parent compound remaining at 1 uM preincubated for 5 mins followed by NADPH addition by LC-MS/MS analysis; type: ADME, Microsome; settings: read-out: Stability
H22 [23] = test: Antitumor activity against mouse H22 cells implanted in BALB/c mouse assessed as tumor growth inhibition at 15 mg/kg, po administered twice daily for 11 days and measured 3 times per week during compound dosing relative to control; type: functional; settings: H22, 264 h, time 11 day, read-out: TGI
[24] = Clearance in CD-1 mouse at 1 mg/kg, iv by LC-MS/MS analysis; type: ADME, organism-based; settings: in vivo
[25] = target: Activin receptor type-1B (Homo sapiens) (UniProt P36896); test: Inhibition of ALK4 (unknown origin) assessed as residual activity at 1 uM relative to control
Activin receptor type-1B (Homo sapiens), sequence (P36896 whole entry): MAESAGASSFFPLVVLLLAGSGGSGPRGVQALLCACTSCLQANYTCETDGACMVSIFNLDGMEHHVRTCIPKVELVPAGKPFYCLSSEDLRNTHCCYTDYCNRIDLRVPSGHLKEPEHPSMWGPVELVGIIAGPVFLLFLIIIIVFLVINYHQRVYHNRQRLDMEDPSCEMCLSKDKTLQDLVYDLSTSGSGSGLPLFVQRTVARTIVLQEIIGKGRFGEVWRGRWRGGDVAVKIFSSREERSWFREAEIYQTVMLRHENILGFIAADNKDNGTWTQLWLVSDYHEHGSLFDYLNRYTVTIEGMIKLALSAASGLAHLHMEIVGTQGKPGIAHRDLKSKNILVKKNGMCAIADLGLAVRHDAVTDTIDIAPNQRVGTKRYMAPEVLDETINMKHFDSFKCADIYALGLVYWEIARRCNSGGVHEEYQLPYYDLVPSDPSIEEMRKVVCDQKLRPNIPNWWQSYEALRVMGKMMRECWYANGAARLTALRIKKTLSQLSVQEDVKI

Receptor-interacting serine/threonine-protein kinase 2 (Homo sapiens), sequence (O43353 whole entry): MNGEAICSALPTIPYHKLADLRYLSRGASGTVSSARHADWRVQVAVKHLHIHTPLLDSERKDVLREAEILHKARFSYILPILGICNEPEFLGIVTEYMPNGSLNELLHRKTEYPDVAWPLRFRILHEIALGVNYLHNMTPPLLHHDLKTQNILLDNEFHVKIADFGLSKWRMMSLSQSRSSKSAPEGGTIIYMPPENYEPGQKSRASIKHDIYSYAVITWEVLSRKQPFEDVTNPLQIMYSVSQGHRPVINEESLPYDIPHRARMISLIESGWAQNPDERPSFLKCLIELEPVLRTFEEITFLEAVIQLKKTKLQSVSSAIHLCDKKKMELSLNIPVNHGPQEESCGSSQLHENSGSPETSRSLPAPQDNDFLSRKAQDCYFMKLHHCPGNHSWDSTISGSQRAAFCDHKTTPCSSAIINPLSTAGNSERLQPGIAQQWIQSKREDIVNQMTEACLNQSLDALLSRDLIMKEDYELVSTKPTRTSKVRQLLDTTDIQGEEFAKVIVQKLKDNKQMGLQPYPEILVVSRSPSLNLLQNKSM
Cytochrome P450 2D6, sequence (P10635 whole entry): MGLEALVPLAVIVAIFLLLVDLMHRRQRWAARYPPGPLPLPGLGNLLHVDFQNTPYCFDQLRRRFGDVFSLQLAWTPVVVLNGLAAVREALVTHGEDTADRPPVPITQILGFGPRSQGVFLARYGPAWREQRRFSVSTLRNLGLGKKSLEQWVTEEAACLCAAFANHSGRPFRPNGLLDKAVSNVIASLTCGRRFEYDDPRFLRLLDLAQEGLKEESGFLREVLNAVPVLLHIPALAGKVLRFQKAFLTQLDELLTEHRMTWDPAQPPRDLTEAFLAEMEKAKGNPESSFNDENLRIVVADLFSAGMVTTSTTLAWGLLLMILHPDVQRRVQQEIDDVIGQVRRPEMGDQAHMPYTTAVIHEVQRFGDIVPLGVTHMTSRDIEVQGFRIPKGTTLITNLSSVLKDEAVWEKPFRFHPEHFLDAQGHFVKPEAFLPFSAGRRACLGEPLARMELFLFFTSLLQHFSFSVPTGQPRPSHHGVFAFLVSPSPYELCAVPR

Cc1cccc(-c2nn3c(c2-c2ccc4ncnn4c2/C=C/C(N)=O)CCC3)n1
Activity (4T1-Luc [1]): Active | CLint scaled at […], 1 µM [2]: 19.3 mL/min/kg | IC50 (TGF-beta receptor type-1): 105 nM | Activity (CD14-positive cell [3]): Active | inhibition in vivo at 50 mg/kg (H22 [4]): 57.5% | CLint scaled at […], 1 µM [5]: < 6.9 mL/min/kg | half-life [6]: 51.4 min | Activity (4T1-Luc [7]): Active | inhibition in vivo at 50 mg/kg (CT26): 79.4% | bioavailability [8]: 65.5% | Activity (4T1-Luc [9]): Active | solubility kinetic [10]: 185 µM (≈ 71.5 µg/mL) | AUClast [11]: 5626 nM.hr/ml | IC50 (Cytochrome P450 2D6): > 100000 nM | Vd [12]: 1.44 L/kg | Activity (4T1-Luc [13]): Active | clearance [14]: 33.3 mL/min/kg | CLint scaled at […], 1 µM [15]: 50 mL/min/kg | Activity (CD14-positive cell [16]): Active | fraction unbound at 4 h, up to 10 µM [17]: 0.554 | Drug metabolism [18]: metabolite_detected | Activity (CD14-positive cell [19]): inactive | Activity (4T1-Luc [20]): Active | Activity [21]: < 50% | remaining at 1 µM [22]: 87.5% | inhibition in vivo at 15 mg/kg (H22 [23]): 50.8% | clearance [24]: 63.3 mL/min/kg | Activity [25]: < 50%
